Test results as given in US12384769B2, “Heteroaryl-substituted aminoalkyl azole compounds as pesticides” (Elanco Animal Health GmbH, priority 2019, dated 2025).

Tests used:
Format in all cases: in vivo
[1] = system: Rhipicephalus microplus (strain Parkhurst, resistant against synthetic pyrethroids); experiment: Rhipicephalus microplus in-vitro contact test, larval cattle tick (BOOPMI Contact); conditions: 5 μg/cm^2 (=500 g/ha), after 48 hours, read-out: activity (efficacy, larvae dead or moribund)
Outline: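 Efficacy, expressed as percentage of larvae dead or moribund, is judged by negative geotactic behaviour 48 h after larvae (20-50 per tube) enter tubes whose inner walls carry a dried acetone film of compound, 5 μg/cm² at 900 ppm. Incubation: horizontal, 27 °C, 85% relative humidity.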

[2] = system: Diabrotica balteata; experiment: Diabrotica balteata spray test; conditions: 168 h, wheat seeds, after 7 days, read-out: activity (efficacy, seedlings grown); for pest or weed control at 160 µg/disc, 500 g/ha: 500 g/ha (=160 μg/well)
Outline: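 Efficacy was read 7 days after infesting each unit with 10–20 banded cucumber beetle larvae, as % of seedlings growing like untreated, uninfested controls. Before infestation, wheat seeds germinated 1 day on agar (5 per well) were sprayed with the active ingredient. The active was formulated in acetone/DMF and diluted in water containing emulsifier.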

[3] = system: Ctenocephalides felis; experiment: Ctenocephalides felis oral test (CTECFE); conditions: 48 h, 100 ppm in cattle blood, after 2 days
Outline: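 About 20 adult unfed fleas fed through parafilm on cattle blood held at 37° C and dosed with compound from a DMSO concentrate; flea chamber at room temperature. Percent mortality scored after 2 days.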

[4] = system: Myzus persicae; experiment: Myzus persicae spray test; conditions: foliar, 120 h, Chinese cabbage leaf disks, after 5 days
Procedure: Myzus persicae—Spray Test
(§1) Solvent: 78.0 parts by weight acetone • 1.5 parts by weight dimethylformamide
(§2) Emulsifier: alkylarylpolyglycol ether
(§3) To produce a suitable preparation of active compound, 1 part by weight of active compound is mixed with the stated amount of solvents and is diluted with water, containing an emulsifier concentration of 1000 ppm, to the desired concentration. Further test concentrations are prepared by dilution with emulsifier containing water.
Chinese cabbage (Brassica pekinensis) leaf disks infected with all instars of the green peach aphid (Myzus persicae), are sprayed with a preparation of the active ingredient of the desired concentration.
(§4) After 5 days mortality in % is determined. 100% means all aphids have been killed and 0% means none of the aphids have been killed.

[5] = system: Spodoptera frugiperda; experiment: Spodoptera frugiperda spray test; conditions: in Zea mays, 168 h, read-out: activity (mortality)
Outline: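 Larvae of fall armyworm placed on dried maize leaf sections previously sprayed with emulsified compound (acetone/DMF solvent, water with 1000 ppm emulsifier). Percent of caterpillars killed recorded on day 7, 0–100% scale.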

[6] = system: Tetranychus urticae; experiment: Tetranychus urticae spray test OP-resistant; conditions: foliar, 144 h, 500 g/ha, French bean leaf disks, after 6 days
Procedure: Tetranychus urticae—Spray Test OP-Resistant
as §1, §2, §3
French bean (Phaseolus vulgaris) leaf disks infected with all instars of the two spotted spidermite (Tetranychus urticae) are sprayed with a preparation of the active ingredient of the desired concentration.
After 6 days mortality in % is determined. 100% means all spider mites have been killed and 0% means none of the spider mites have been killed.

[7] = system: Boophilus microplus; experiment: Boophilus microplus injection test (BOOPMI Injection); conditions: Rhipicephalus microplus, 168 h; 20 μg/animal, injection into adult engorged female ticks, egg deposition after 7 days; read-out: activity (efficacy, infertile eggs)
Outline: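 Adult engorged female ticks (5 per group) injected into the abdomen with 1 μL compound in DMSO, then held in a climate chamber. Fertile egg deposition scored after 7 days, with unclear eggs kept until hatching (~42 days). Efficacy 100% = all eggs infertile, 0% = all fertile.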

[8] = system: Meloidogyne incognita; experiment: Meloidogyne incognita test; conditions: 20 ppm, after 14 days
Procedure: Meloidogyne incognita—Test
Solvent: 125.0 parts by weight of acetone
To produce a suitable preparation of active compound, 1 part by weight of active compound is mixed with the stated amount of solvent, and the concentrate is diluted with water to the desired concentration.
Vessels are filled with sand, a solution of the active ingredient, a suspension containing eggs and larvae of the southern root-knot nematode (Meloidogyne incognita) and salad seeds. The salad seeds germinate, and the seedlings grow. Galls develop in the roots.
After 14 days the nematicidal activity is determined based on the percentage of gall formation. 100% means no galls were found and 0% means the number of galls found on the roots of the treated plants was equal to that in untreated control plants.

[9] = system: Myzus persicae; experiment: Myzus persicae oral test; conditions: 120 h, after 5 days
Procedure: Solvent: 100 parts by weight acetone
Afterwards the plates are sealed with parafilm through which a mixed population of the green peach aphid (Myzus persicae) can suck on the compound preparation.
as §4

[10] = system: Anopheles funestus strain FUMOZ-R; experiment: Anopheles funestus test (ANPHFU surface treatment & contact assay); conditions: 30 minutes exposure, 24 hours after contact, read-out: efficacy (mortality); for mortality at 4 mg/m2: surface concentration 4 mg/m^2, glazed tile; for mortality at 20 mg/m2: surface concentration 20 mg/m^2, glazed tile
Procedure: Anopheles funestus Test (ANPHFU Surface Treatment & Contact Assay)
(§5) Solvent: Aceton+2000 ppm rapeseed oil methyl ester (RME)
(§6) In order to produce a sufficient, active ingredient containing solution it is necessary to solve the test compound in the solvent-mix (acetone at 2 mg/mL/RME 2000 ppm). This solution is pipetted onto a glazed tile and after evaporation of the acetone, adult mosquitoes of the species Anopheles funestus strain FUMOZ-R (Hunt et al., Med. Vet. Entomol. 2005 September; 19(3): 271-275) are placed onto the dried surface. The exposure time is 30 minutes.
(§7) Mortality in percent (%) is determined 24 hours after contact of the insects to the treated surface. 100% mortality means that all tested insects are dead, whereas 0% means that no insect died.

[11] = system: Aedes aegypti strain MONHEIM; experiment: Aedes aegypti test (AEDSAE surface treatment & contact assay); conditions: 30 minutes exposure, 24 hours after contact, read-out: efficacy (mortality); for mortality at 4 mg/m2: surface concentration 4 mg/m^2, glazed tile; for mortality at 20 mg/m2: surface concentration 20 mg/m^2, glazed tile
Procedure: Aedes aegypti Test (AEDSAE Surface Treatment & Contact Assay)
as §5
as §6, with “Aedes aegypti” for “Anopheles funestus”, “MONHEIM” for “FUMOZ-R (Hunt et al., Med. Vet. Entomol. 2005 September; 19(3): 271-275)”
as §7

[12] = system: Rhipicephalus sanguineus; experiment: Rhipicephalus sanguineus in-vitro contact test, adult brown dog ticks (RHIPSA Contact); conditions: 5 μg/cm^2 (=500 g/ha), after 48 hours, read-out: activity (efficacy, ticks dead or moribund)
Outline: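 Acetone solution coated onto glass tube walls; 900 ppm gives 5 μg/cm^2. After drying, 5-10 adult ticks per tube kept at room temperature for 48 h, then placed on a 45-50° C heating plate up to 5 min; ticks unable to climb away counted dead or moribund, efficacy as % affected.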

[13] = system: Musca domestica strain WHO-N; experiment: Musca domestica test (MUSCDO surface treatment & contact assay); conditions: 30 minutes exposure, 24 hours after contact, read-out: efficacy (mortality); for mortality at 4 mg/m2: surface concentration 4 mg/m^2, glazed tile
Procedure: Musca domestica Test (MUSCDO Surface Treatment & Contact Assay)
as §5
as §6, with “flies” for “mosquitoes”, “Musca domestica” for “Anopheles funestus”, “WHO—N” for “FUMOZ-R (Hunt et al., Med. Vet. Entomol. 2005 September; 19(3): 271-275)”
as §7

[14] = system: Ctenocephalides felis; experiment: Ctenocephalides felis in-vitro contact test, adult cat flea; conditions: 5 μg/cm^2 (=500 g/ha), after 48 hours, read-out: activity (efficacy, fleas dead or moribund)
Outline: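 Acetone solutions coated onto inner walls of glass tubes; 900 ppm gives 5 μg/cm^2. After drying, 5-10 adult Ctenocephalides felis per tube held 48 h at room temperature. Fleas then placed on 45-50° C. plate for up to 5 min; those unable to climb away scored dead or moribund, efficacy as % dead/moribund.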

SMILES: C[C@H](Nc1nc2cc(Cl)cc(Cl)c2o1)c1ncnn1-c1ncccn1 [Example I-013]
- pest or weed control at 5 µg/cm2 [1]: 100%
- pest or weed control at 160 µg/disc, 500 g/ha [2]: 100%
- mortality at 100 ppm [3]: 90%
- mortality at 500 g/ha [4]: 100%

SMILES: C[C@H](Nc1nc2cc(Cl)c(Cl)cc2o1)c1ncnn1-c1ncccn1 [Example I-016]
- mortality at 500 g/ha [5]: 100%
- pest or weed control at 5 µg/cm2 [1]: 100%
- mortality at 500 g/ha [6]: 90%
- pest or weed control at 100 g/ha [2]: 100%
- pest or weed control at 160 µg/disc, 500 g/ha [2]: 100%
- pest or weed control at 0.02 mg [7]: 100%

SMILES: C[C@H](Nc1nc2cc(C(F)(F)F)cc(Cl)c2o1)c1ncnn1-c1ccc(Cl)nn1 [Example I-046, 7-Chlor-N-{(1S)-1-[1-(6-chlorpyridazin-3-yl)-1H-1,2,4-triazol-5-yl]ethyl}-5-(trifluormethyl)-1,3-benzoxazol-2-amin]
- pest or weed control at 5 µg/cm2 [1]: 80%
- activity (nematicidal activity, gall formation) [8]: 90%

SMILES: C[C@H](Nc1nc2cc(C(F)(F)F)c(Cl)cc2o1)c1ncnn1-c1ncc(Cl)cn1 [Example I-059, 6-Chlor-N-{(1)S-1-[1-(5-chlorpyrimidin-2-yl)-1H-1,2,4-triazol-5-yl]ethyl}-5-(trifluormethyl)-1,3-benzoxazol-2-amin]
- mortality at 4 ppm [9]: 90%
- mortality at 100 g/ha [5]: 100%
- pest or weed control at 5 µg/cm2 [1]: 100%
- mortality at 4 mg/m2 [10]: 85 to 100%
- mortality at 20 mg/m2 [10]: 90 to 100%
- mortality at 4 mg/m2 [11]: 85 to 100%
- mortality at 20 mg/m2 [11]: 90 to 100%
- pest or weed control at 5 µg/cm2, 5 µg/cm2 [12]: 100%
- pest or weed control at 100 g/ha [2]: 100%
- mortality at 4 mg/m2 [13]: 90 to 100%
- pest or weed control at 5 µg/cm2, 5 µg/cm2 [14]: 100%

SMILES: C[C@H](Nc1nc2cc(C(F)(F)F)c(Cl)cc2o1)c1ncnn1-c1ncc(F)cn1 [Example I-061, 6-Chlor-N-{(1S)-1-[1-(5-fluorpyrimidin-2-yl)-1H-1,2,4-triazol-5-yl]ethyl}-5-(trifluormethyl)-1,3-benzoxazol-2-amin]
- mortality at 4 ppm [9]: 100%
- mortality at 100 g/ha [5]: 100%
- pest or weed control at 5 µg/cm2 [1]: 100%
- mortality at 4 mg/m2 [10]: 85 to 100%
- mortality at 4 mg/m2 [11]: 85 to 100%
- mortality at 20 mg/m2 [11]: 90 to 100%
- pest or weed control at 5 µg/cm2, 5 µg/cm2 [12]: 80%
- pest or weed control at 100 g/ha [2]: 100%
- mortality at 4 mg/m2 [13]: 90 to 100%
- pest or weed control at 5 µg/cm2, 5 µg/cm2 [14]: 100%

SMILES: C[C@H](Nc1nc2cc(OC(F)(F)F)c(Cl)cc2o1)c1ncnn1-c1ncc(F)cn1 [Example I-081, 6-Chlor-N-{(1S)-1-[1-(5-fluorpyrimidin-2-yl)-1H-1,2,4-triazol-5-yl]ethyl}-5-(trifluormethoxy)-1,3-benzoxazol-2-amin]
- mortality at 4 ppm [9]: 90%
- mortality at 100 g/ha [5]: 100%
- pest or weed control at 5 µg/cm2 [1]: 90%
- mortality at 4 mg/m2 [10]: 85 to 100%
- mortality at 20 mg/m2 [10]: 90 to 100%
- mortality at 4 mg/m2 [11]: 85 to 100%
- mortality at 20 mg/m2 [11]: 90 to 100%
- pest or weed control at 5 µg/cm2, 5 µg/cm2 [12]: 100%
- pest or weed control at 100 g/ha [2]: 100%
- mortality at 4 mg/m2 [13]: 90 to 100%
- mortality at 20 mg/m2 ([13]; surface concentration 20 mg/m^2, glazed tile): 90 to 100%
- pest or weed control at 5 µg/cm2, 5 µg/cm2 [14]: 100%
- mortality at 100 g/ha [4]: 90%

SMILES: C[C@H](Nc1nc2cc(Cl)cc(C(F)(F)F)c2o1)c1ncnn1-c1ccc(C(F)(F)F)cn1 [Example I-087, 5-Chlor-7-(trifluormethyl)-N-[(1S)-1-{1-[5-(trifluormethyl)pyridin-2-yl]-1H-1,2,4-triazol-5-yl}ethyl]-1,3-benzoxazol-2-amin]
- pest or weed control at 5 µg/cm2 [1]: 100%
- activity (nematicidal activity, gall formation) [8]: 90%

SMILES: C[C@H](Nc1nc2cc(Cl)cc(C(F)(F)F)c2o1)c1ncnn1-c1ccc(C#N)cn1 [Example I-088, 6-{5-[(1S)-1-{[5-Chlor-7-(trifluormethyl)-1,3-benzoxazol-2-yl]amino}ethyl]-1H-1,2,4-triazol-1-yl}nicotinonitril]
- mortality at 500 g/ha [5]: 83%
- pest or weed control at 5 µg/cm2 [1]: 100%
- pest or weed control at 160 µg/disc, 500 g/ha [2]: 100%
- activity (nematicidal activity, gall formation) [8]: 90%

SMILES: Cc1nc([C@H](C)Nc2nc3cc(Cl)cc(C(F)(F)F)c3o2)n(-c2ccc(C#N)cn2)n1 [Example I-091, 6-{5-[(1S)-1-{[5-Chlor-7-(trifluormethyl)-1,3-benzoxazol-2-yl]amino}ethyl]-3-methyl-1H-1,2,4-triazol-1-yl)nicotinonitril]
- pest or weed control at 5 µg/cm2 [1]: 90%
- pest or weed control at 0.02 mg [7]: 100%
- activity (nematicidal activity, gall formation) [8]: 90%
- mortality at 500 g/ha [4]: 90%

SMILES: C[C@H](Nc1nc2c(Cl)cc(C(F)(F)F)cn2n1)c1ncnn1-c1ncccn1 [Example I-092, 8-chloro-N-{(1S)-1-[1-(pyrimidin-2-yl)-1H-1,2,4-triazol-5-yl]ethyl}-6-(trifluoromethyl)[1,2,4]triazolo[1,5-a]pyridin-2-amine]
- pest or weed control at 5 µg/cm2 [1]: 100%
- mortality at 100 ppm [3]: 100%
- pest or weed control at 0.02 mg [7]: 100%
- pest or weed control at 5 µg/cm2, 5 µg/cm2 [14]: 90%
- mortality at 100 g/ha [4]: 90%

SMILES: C[C@H](Nc1nc2c(Cl)cc(C(F)(F)F)cn2n1)c1ncnn1-c1ncc(Br)cn1 [Example I-093, N-{(1S)-1-[1-(5-bromopyrimidin-2-yl)-1H-1,2,4-triazol-5-yl]ethyl}-8-chloro-6-(trifluoromethyl)[1,2,4]triazolo[1,5-a]pyridin-2-amine]
- pest or weed control at 5 µg/cm2 [1]: 100%
- mortality at 100 ppm [3]: 100%
- pest or weed control at 5 µg/cm2, 5 µg/cm2 [14]: 100%
- mortality at 100 g/ha [4]: 90%
